Data as given in BindingDB's records for doi:10.1016/j.bmcl.2005.01.005 (East China Normal University, 2022).

Assays:
[1] = target: Potassium voltage-gated channel subfamily H member 2 (Homo sapiens, UniProt Q12809); assay: Inhibition of hERG expressed in CHO cells Qpatch-clamp electrophysiology assay
[2] = target: Polyketide synthase Pks13 (Mycobacterium tuberculosis (strain ATCC 25618 / H37Rv), UniProt I6X8D2); assay: Inhibition of Mycobacterium tuberculosis Pks13-TE expressed in Escherichia coli BL21(DE3) pLysS
Sequence of Polyketide synthase Pks13 (I6X8D2 whole entry): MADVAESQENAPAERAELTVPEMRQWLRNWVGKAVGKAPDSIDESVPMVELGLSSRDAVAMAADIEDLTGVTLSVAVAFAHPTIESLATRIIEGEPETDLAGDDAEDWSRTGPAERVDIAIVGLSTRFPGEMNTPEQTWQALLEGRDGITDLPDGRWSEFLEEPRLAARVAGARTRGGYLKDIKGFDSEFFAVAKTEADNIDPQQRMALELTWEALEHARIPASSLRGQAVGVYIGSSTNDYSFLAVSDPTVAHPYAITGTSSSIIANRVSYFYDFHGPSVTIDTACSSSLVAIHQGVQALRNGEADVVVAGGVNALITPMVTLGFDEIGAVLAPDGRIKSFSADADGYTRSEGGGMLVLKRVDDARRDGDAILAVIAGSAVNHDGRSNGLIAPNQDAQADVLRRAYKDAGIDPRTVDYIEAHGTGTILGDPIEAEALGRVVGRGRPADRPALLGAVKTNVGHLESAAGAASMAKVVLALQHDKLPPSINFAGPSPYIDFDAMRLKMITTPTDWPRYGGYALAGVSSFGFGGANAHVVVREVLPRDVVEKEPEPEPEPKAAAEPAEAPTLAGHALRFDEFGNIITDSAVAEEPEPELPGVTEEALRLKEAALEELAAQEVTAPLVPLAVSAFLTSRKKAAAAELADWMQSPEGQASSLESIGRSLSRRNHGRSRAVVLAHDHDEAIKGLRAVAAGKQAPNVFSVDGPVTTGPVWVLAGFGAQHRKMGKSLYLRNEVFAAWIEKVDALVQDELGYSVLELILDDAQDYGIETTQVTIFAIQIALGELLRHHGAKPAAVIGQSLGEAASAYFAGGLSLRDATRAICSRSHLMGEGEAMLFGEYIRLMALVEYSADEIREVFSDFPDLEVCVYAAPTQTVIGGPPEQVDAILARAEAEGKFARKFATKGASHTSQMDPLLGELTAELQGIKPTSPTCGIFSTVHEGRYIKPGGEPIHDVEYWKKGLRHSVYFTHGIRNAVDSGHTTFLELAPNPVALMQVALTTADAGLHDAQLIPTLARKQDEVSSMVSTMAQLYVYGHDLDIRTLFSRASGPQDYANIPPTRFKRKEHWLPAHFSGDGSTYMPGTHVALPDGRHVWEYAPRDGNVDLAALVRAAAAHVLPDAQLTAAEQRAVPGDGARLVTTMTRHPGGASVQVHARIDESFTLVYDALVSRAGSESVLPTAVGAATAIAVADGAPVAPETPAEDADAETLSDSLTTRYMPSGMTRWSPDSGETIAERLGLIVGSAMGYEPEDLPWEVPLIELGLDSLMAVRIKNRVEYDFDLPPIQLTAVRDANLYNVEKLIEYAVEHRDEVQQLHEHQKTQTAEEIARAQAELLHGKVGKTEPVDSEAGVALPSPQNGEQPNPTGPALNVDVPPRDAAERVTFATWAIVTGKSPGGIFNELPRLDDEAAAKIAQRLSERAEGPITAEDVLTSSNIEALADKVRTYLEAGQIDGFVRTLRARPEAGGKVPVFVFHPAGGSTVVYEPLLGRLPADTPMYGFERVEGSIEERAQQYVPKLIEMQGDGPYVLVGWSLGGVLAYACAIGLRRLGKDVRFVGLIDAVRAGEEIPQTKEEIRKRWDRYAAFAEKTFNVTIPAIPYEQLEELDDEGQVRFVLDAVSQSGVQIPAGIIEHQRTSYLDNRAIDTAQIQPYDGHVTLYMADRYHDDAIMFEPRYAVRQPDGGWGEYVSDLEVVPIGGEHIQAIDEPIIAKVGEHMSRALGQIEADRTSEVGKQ

Sequence of Potassium voltage-gated channel subfamily H member 2 (Q12809 whole entry): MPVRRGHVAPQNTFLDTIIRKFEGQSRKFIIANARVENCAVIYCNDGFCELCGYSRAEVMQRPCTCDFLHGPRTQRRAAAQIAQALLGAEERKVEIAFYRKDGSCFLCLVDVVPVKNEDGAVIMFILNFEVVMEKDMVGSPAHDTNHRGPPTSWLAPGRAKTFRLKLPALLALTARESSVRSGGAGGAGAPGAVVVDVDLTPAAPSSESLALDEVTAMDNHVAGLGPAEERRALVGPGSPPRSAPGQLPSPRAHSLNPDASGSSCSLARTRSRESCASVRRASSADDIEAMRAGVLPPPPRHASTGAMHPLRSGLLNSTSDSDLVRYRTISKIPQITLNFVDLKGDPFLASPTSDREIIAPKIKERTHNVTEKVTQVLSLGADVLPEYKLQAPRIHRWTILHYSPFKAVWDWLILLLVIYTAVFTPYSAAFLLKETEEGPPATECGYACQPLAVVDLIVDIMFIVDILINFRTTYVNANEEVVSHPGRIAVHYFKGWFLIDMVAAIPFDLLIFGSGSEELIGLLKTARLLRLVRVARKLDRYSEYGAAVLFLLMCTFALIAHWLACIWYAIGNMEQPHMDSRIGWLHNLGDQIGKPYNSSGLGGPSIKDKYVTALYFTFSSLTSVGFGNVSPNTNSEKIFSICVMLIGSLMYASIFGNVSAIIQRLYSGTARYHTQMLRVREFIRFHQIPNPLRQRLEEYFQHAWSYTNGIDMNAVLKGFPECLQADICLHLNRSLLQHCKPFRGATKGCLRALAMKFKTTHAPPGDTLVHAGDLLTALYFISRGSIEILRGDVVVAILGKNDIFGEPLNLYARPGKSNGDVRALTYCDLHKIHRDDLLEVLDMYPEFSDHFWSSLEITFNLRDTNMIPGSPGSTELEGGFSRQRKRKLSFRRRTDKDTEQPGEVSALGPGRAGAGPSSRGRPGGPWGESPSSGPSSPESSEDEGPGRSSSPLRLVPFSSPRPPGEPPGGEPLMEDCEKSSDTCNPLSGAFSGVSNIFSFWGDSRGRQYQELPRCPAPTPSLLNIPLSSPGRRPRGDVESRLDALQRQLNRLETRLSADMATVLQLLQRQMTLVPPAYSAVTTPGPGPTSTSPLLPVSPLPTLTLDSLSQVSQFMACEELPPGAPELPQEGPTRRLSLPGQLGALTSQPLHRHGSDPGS

Row | SMILES | IC50 [1] | IC50 [2]
1 | O=c1oc2cc(O)ccc2c2oc3ccc(O)c(CN4CCCCC4)c3c12 | > 30000 nM | 
2 | O=c1oc2cc(O)ccc2c2oc3ccc(O)c(CN4CCC(F)CC4)c3c12 |  | 1550 nM
3 | O=c1oc2cc(O)ccc2c2oc3ccc4c(c3c12)CN(C1CCCC1)CO4 | 520 nM | 1300 nM
